Measurements from US7030138B2, “Benzamidine derivatives” (Sankyo Company, Limited, priority 2001, dated 2006).
Where a name gives a salt, the structure may show the parent alone.

Legend:
human factor-Xa = target: T1, human factor-Xa (Homo sapiens, UniProt P00742); assay: Determination of anti-factor Xa activity (S-2222 coloring substrate, absorbance at 405 nm); type: biochemical; conditions: human factor-Xa 0.25 unit/ml, S-2222 0.4 mM, Tris buffer pH 8.4, room temperature, 5 minutes; read-out: Inhibitory Action against Factor Xa Activity (IC50 (nM))
T1 construct: purchased Cosmobio Co., Ltd
Experimental: Determination of Anti-factor Xa Activity
Anti-factor Xa activity was determined according to methods described by Hara et al. [Thrombo. Haemost., 71, 314 (1994)], which were slightly modified. S-2222, a coloring substrate (0.4 mM, Daiichi Pure Chemicals Co., Ltd.) and the test compounds were mixed in Tris hydrochloride buffered solution (50 mM, pH: 8.4) containing NaCl (0.9%). To this solution, human factor-Xa (0.25 unit/ml, Cosmobio Co., Ltd.) was added and the reaction was started. In the control group, distilled water was added to the Tris-buffered solution instead of the test compound. The reaction mixture (in total: 0.1 ml) was incubated at room temperature for 5 minutes. Optical absorbance of the reaction mixture was continuously determined at 405 nm with a 96-well microplate reader (Model 550, Biorad) and increase in the absorbance for 5 minutes was calculated as an indicator of factor Xa activity. To assess anti-factor Xa activities of the test compounds, concentrations of the test compounds to inhibit the factor Xa activity by 50% (IC50) were calculated.

bovine trypsin = target: T2, bovine trypsin (Bos taurus, UniProt P00760); assay: Determination of anti-trypsin activity (S-2222 coloring substrate, absorbance at 405 nm); type: biochemical; conditions: bovine trypsin 0.25 μg-protein/ml, S-2222 0.4 mM, Tris buffer pH 8.4, room temperature, 5 minutes; read-out: Inhibitory Action against Trypsin Activity (IC50 (nM))
T2 construct: purchased Sigma
T2 sequence (P00760 24-246): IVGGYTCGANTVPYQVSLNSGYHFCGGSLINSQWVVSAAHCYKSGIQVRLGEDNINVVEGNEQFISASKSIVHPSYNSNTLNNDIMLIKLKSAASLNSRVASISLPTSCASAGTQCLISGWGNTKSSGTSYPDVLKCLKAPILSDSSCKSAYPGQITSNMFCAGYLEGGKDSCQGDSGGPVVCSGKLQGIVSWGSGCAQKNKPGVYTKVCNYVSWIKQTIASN
Experimental: Determination of Anti-trypsin Activity
Anti-trypsin activity was determined according to methods described by Taniuchi et al. [Thromb. Haemost., 79, 543 (1998)], which were partially modified. S-2222, a coloring substrate (5 μl, final concentration: 0.4 mM, Daiichi Pure Chemicals Co., Ltd.) and the test compound (5 μl) were mixed with Tris hydrochloride buffered solution (50 mM, 85 μl, pH: 8.4) containing NaCl (0.9%). To this solution, bovine trypsin (5 μl, final concentration: 0.25 μg-protein/ml, Sigma) was added and the reaction was started. In the control group, distilled water was added to the Tris-buffered solution instead of the test compound. The reaction mixture (in total: 0.1 ml) was incubated at room temperature. Optical absorbance was continuously determined at 405 nm with a 96-well microplate reader (Model 550, Biorad) and increase in the absorbance for 5 minutes was calculated as an indicator of trypsin activity. To assess anti-trypsin activities of the test compounds, concentrations of the test compounds to inhibit the trypsin activity by 50% (IC50) were calculated.

T1 sequence (P00742 235-488 limits assumed): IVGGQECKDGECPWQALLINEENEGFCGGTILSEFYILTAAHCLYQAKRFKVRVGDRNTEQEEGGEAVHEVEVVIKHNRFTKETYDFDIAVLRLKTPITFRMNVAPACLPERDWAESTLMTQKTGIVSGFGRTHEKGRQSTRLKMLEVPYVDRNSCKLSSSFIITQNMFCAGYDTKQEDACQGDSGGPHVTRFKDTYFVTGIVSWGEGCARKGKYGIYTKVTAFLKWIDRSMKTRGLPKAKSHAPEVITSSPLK
T1 sequence (P00742 41-179 partner limits assumed): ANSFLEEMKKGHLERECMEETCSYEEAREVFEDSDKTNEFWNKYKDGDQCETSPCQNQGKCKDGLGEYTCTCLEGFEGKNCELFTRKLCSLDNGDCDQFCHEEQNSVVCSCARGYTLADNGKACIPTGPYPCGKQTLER

## CCN1CCC(Oc2ccc(N(C/C=C/c3cccc(C(=N)N)c3)S(=O)(=O)CC(=O)O)cc2Cl)CC1 [Example 4, N-[3-(3-Amidinophenyl)-2-(E)-propenyl]-N-[3-chloro-4-(1-ethylpiperidin-4-yloxy)phenyl]sulfamoylacetic acid dihydrochloride]
Human factor-Xa
  IC50: 10 nM

## N=C(N)c1cccc(/C=C/CN(c2ccc(OC3CCN(Cc4ccccc4)CC3)c(Cl)c2)S(=O)(=O)CC(=O)O)c1 [Example 10, N-[3-(3-Amidinophenyl)-2-(E)-propenyl]-N-[4-(1-benzylpiperidin-4-yloxy)-3-chlorophenyl]sulfamoylacetic acid dihydrochloride]
Human factor-Xa
  IC50: 15 nM

## N=C(N)c1cccc(/C=C/CN(c2ccc(OC3CCN(CCc4ccccc4)CC3)c(Cl)c2)S(=O)(=O)CC(=O)O)c1 [Example 12, N-[3-(3-Amidinophenyl)-2-(E)-propenyl]-N-[3-chloro-4-(1-phenethylpiperidin-4-yloxy)phenyl]sulfamoylacetic acid dihydrochloride]
Human factor-Xa
  IC50: 13 nM

## CCOC(=O)CS(=O)(=O)N(C/C=C/c1cccc(C(=N)N)c1)c1ccc(OC2CCN(c3ccncc3)CC2)c(Cl)c1 [Example 27, Ethyl N-[3-(3-amidinophenyl)-2-(E)-propenyl]-N-[3-chloro-4-[1-(4-pyridyl)piperidin-4-yloxy]phenyl]sulfamoylacetate dihydrochloride]
Bovine trypsin
  IC50: 540 nM
Human factor-Xa
  IC50: 7.9 nM

## N=C(N)c1cccc(/C=C/CN(c2ccc(OC3CCN(c4ccncc4)CC3)c(Cl)c2)S(=O)(=O)CC(=O)O)c1 [Example 28, N-[3-(3-Amidinophenyl)-2-(E)-propenyl]-N-[3-chloro-4-[1-(4-pyridyl)piperidin-4-yloxy]phenyl]sulfamoylacetic acid dihydrochloride]
Bovine trypsin
  IC50: 650 nM
Human factor-Xa
  IC50: 6.4 nM

## N=C(N)c1cccc(/C=C/CN(c2ccc(OC3CCN(CCc4ccccn4)CC3)c(Cl)c2)S(=O)(=O)CC(=O)O)c1 [Example 36, N-[3-(3-Amidinophenyl)-2-(E)-propenyl]-N-[3-chloro-4-[1-[2-(2-pyridyl)ethyl]piperidin-4-yloxy]phenyl]sulfamoylacetic acid trihydrochloride]
Human factor-Xa
  IC50: 13 nM

## N=C(N)c1cccc(/C=C/CN(c2ccc(OC3CCN(C4CCCC4)CC3)c(Cl)c2)S(=O)(=O)CC(=O)O)c1 [Example 38, N-[3-(3-Amidinophenyl)-2-(E)-propenyl]-N-[3-chloro-4-(1-cyclopentylpiperidin-4-yloxy)phenyl]sulfamoylacetic acid dihydrochloride]
Human factor-Xa
  IC50: 12 nM

## N=C(N)c1cccc(/C=C/CN(c2ccc(OC3CCN4CCCC4C3)c(Cl)c2)S(=O)(=O)CC(=O)O)c1 (stereo not shown) [Example 42, dihydrochloride]
Bovine trypsin
  IC50: 7300 nM
Human factor-Xa
  IC50: 11 nM

## CCOC(=O)CS(=O)(=O)N(C/C=C/c1cccc(C(=N)N)c1)c1ccc(OC2CCN(C)CC2)c(C(F)(F)F)c1 [Example 45, Ethyl N-[3-(3-amidinophenyl)-2-(E)-propenyl]-N-[4-(1-methylpiperidin-4-yloxy)-3-trifluoromethylphenyl]sulfamoylacetate dihydrochloride]
Human factor-Xa
  IC50: 7.9 nM

## CN1CCC(Oc2ccc(N(C/C=C/c3cccc(C(=N)N)c3)S(=O)(=O)CC(=O)O)cc2C(F)(F)F)CC1 [Example 46, N-[3-(3-Amidinophenyl)-2-(E)-propenyl]-N-[4–1-methylpiperidin-4-yloxy)-3-trifluoromethylphenyl]sulfamoylacetic acid dihydrochloride]
Human factor-Xa
  IC50: 11 nM

## CCOC(=O)CS(=O)(=O)N(C/C=C/c1cccc(C(=N)N)c1)c1ccc(OC2CCN(C=N)CC2)c(Cl)c1 [Example 47, Ethyl N-[3-(3-amidinophenyl)-2-(E)-propenyl]-N-[3-chloro-4-[(1-formimidoylpiperidin-4-yloxy)phenyl]sulfamoylacetatedihydrochloride]
Bovine trypsin
  IC50: 790 nM
Human factor-Xa
  IC50: 6.1 nM

## N=CN1CCC(Oc2ccc(N(C/C=C/c3cccc(C(=N)N)c3)S(=O)(=O)CC(=O)O)cc2Cl)CC1 [Example 48, N-13-(3-Amidinophenyl)-2-(E)-propenyl]-N-[3-chloro-4-(1-formimidoylpiperidin-4-yloxy]phenyl]sulfamoylacetic acid dihydrochloride]
Bovine trypsin
  IC50: 1200 nM
Human factor-Xa
  IC50: 5.8 nM

## CCOC(=O)CS(=O)(=O)N(C/C=C/c1cccc(C(=N)N)c1)c1ccc(OC2CCN(C(=N)CC)CC2)c(Cl)c1 [Example 49, Ethyl N-[3-(3-amidinophenyl)-2-(E)-propenyl]-N-[3-chloro-4-[1-(1-iminopropyl)piperidin-4-yloxy]phenyl-1 sulfamoylacetatedihydrochloride]
Bovine trypsin
  IC50: 860 nM
Human factor-Xa
  IC50: 6.8 nM

## CCOC(=O)CS(=O)(=O)N(C/C=C/c1cccc(C(=N)N)c1)c1ccc(OC2CCN(C(=N)c3ccccc3)CC2)c(Cl)c1 [Example 51, Ethyl N-[3-(3-amidinophenyl)-2-(E)-propenyl]-N-[4-(1-iminophenylmethylpiperidin-4-yloxy)-3-chlorophenyl]sulfamoylacetate dihydrochloride]
Human factor-Xa
  IC50: 6.9 nM

## N=C(N)c1cccc(/C=C/CN(c2ccc(OC3CCN(C(=N)c4ccccc4)CC3)c(Cl)c2)S(=O)(=O)CC(=O)O)c1 [Example 52, N-[3-(3-Amidinophenyl)-2-(E)-propenyl]-N-[4-(1-iminophenylmethylpiperidin-4-yloxy)-3-chlorophenyl]sulfamoylacetic acid dihydrochloride]
Human factor-Xa
  IC50: 7.8 nM

## N=C(N)c1cccc(/C=C/CN(c2ccc(OC3CCN(C4=NCCCC4)CC3)c(Cl)c2)S(=O)(=O)CC(=O)O)c1 [Example 56, N-[3-(3-Amidinophenyl)-2-(E)-propenyl]-N-[3-chloro-4-[1-(2,3,4,5-tetrahydropyridin-6-yl)piperidin-4-yloxy]phenyl]sulfamoylacetic acid dihydrochloride]
Human factor-Xa
  IC50: 10 nM

## CCOC(=O)CS(=O)(=O)N(C/C=C/c1cccc(C(=N)N)c1)c1ccc(OC2CCN(C3=NCCCC3)CC2)c(C)c1 [Example 67, Ethyl N-[3-(3-amidinophenyl)-2-(E)-propenyl]-N-[3-methyl-4-[1-(2,3,4,5-tetrahydropyridin-6-yl)piperidin-4-yloxy]phenyl]sulfamoylacetate dihydrochloride]
Human factor-Xa
  IC50: 15 nM

## Cc1cc(N(C/C=C/c2cccc(C(=N)N)c2)S(=O)(=O)CC(=O)O)ccc1OC1CCN(C2=NCCCC2)CC1 [Example 68, N-[3-(3-Amidinophenyl)-2-(E)-propenyl]-N-[3-methyl-4-(2,3,4,5-tetrahydropyridin-6-yl)piperidin-4-yloxy]phenyl]sulfamoylacetic acid dihydrochloride]
Human factor-Xa
  IC50: 15 nM

## CCOC(=O)CS(=O)(=O)N(C/C=C/c1cccc(C(=N)N)c1)c1ccc(OC2CCN(C3=NCCCC3)CC2)c(C(F)(F)F)c1 [Example 79, Ethyl N-[3-(3-amidinophenyl)-2-(E)-propenyl]-N-[4-[1-(2,3,4,5-tetrahydropyridin-6-yl)piperidin-4-yloxy]-3-trifluoromethylphenyl]sulfamoylacetate dihydrochloride]
Human factor-Xa
  IC50: 15 nM

## N=C(N)c1cccc(/C=C/CN(c2ccc(OC3CCN(C4=NCCCC4)CC3)c(C(F)(F)F)c2)S(=O)(=O)CC(=O)O)c1 [Example 80, N-[3-(3-Amidinophenyl)-2-(E)-propenyl]-N-[4-[1-(2,3,4,5-tetrahydropyridin-6-yl)piperidin-4-yloxy]-3-trifluoromethylphenyl]sulfamoylacetic acid dihydrochloride]
Human factor-Xa
  IC50: 11 nM

## CCOC(=O)CS(=O)(=O)N(C/C=C/c1cccc(C(=N)N)c1)c1ccc(OC2CCN(C3=NCCSC3)CC2)c(Cl)c1 [Example 83, Ethyl N-[3-(3-amidinophenyl)-2-(E)-propenyl]-N-[3-chloro-4-[1-(5,6-dihydro-2H-[1,4]thiazin-3-yl)piperidin-4-yloxy]phenyl]sulfamoylacetate dihydrochloride]
Human factor-Xa
  IC50: 13 nM

## CCN=CN1CCC(Oc2ccc(N(CC=Cc3cccc(C(=N)N)c3)S(=O)(=O)CC(=O)OCC)cc2Cl)CC1 [Example 86, Ethyl N-[3-(3-amidinophenyl)-2-(E)-propenyl]-N-[3-chloro-4-[1-(N-ethylformimidoyl)piperidin-4-yloxy]phenyl]sulfamoylacetate dihydrochloride]
Human factor-Xa
  IC50: 15 nM
